Test results: patent US9175906B2, “Drug particles from freezing onto a surface” (BOARD OF REGENTS, THE UNIVERSITY OF TEXAS SYSTEM, priority 2003, dated 2015)
“And” between values parts separate entries of the source, which are not always exact repeats. Equal entries are not always repeated.

Tests used:
[1] = Particle size analysis (Beckman Coulter Counter) after redispersion in water; assay type: physicochemical; conditions: bulk drug powder as received, redispersed in water
Method: (§1) • Particle Size Analysis. […] Dissolution obtained using the following method is also referred to herein as “in vitro dissolution”. The dissolution media used varied with the drug substance, and is specified below. The dissolution media was heated to 37° C. and degassed. Dissolution was performed utilizing three vessels per experiment. 11 to 12 mg of drug particles prepared according to the present invention was added to each vessel for dissolution analysis. Dissolution samples were filtered automatically into test tubes containing 0.1 mL of acetonitrile, mixed with a vortex mixer, filtered and analyzed by HPLC. Samples were taken at 2, 5, 10, 15, 20, 30, 60, and 120 minutes. At the 60 min. point the agitation speed was increased to 200 rpm to ensures complete dissolution by 120 minutes. The 120 min. reading is the infinity time reading and the infinity time is used to calculate the potency. […] Crystallinity was determined by X-ray diffraction methods using a Bruker D-8 automated diffractometer. • Atmospheric Freeze Drying (ATMFD). ATMFD was one method of solvent removal used in the following examples. Heat transfer fluid was circulated through the circulating jacket of the heat exchanger, that was used to cool the drying gas then to the jacket of the ATMFD unit. Chilled nitrogen gas is flowed through the bottom of the ATMFD unit to sublime the solvent(s) away from the drug (s) and fluidizing the solids. The ATMFD unit and the nitrogen gas temperature are slowly warmed to ambient temperature. After the ATMFD portion of the process was complete the solid was collected from either the cyclone or the ATMFD Unit. • Freeze Drying. Freeze drying was an alternative solvent removal method used in some of the following examples. The frozen solution that was prepared was transferred to ajar cooled with dry ice. The processed solid in the chilled container was placed on a Virtis freeze dryer and dried for app. 12-24 hr at approximately 100 mtorr vacuum.

[2] = USP Dissolution Apparatus Method 2 (in vitro dissolution); assay type: physicochemical; conditions: 37° C.
Method: as §1

[3] = deionized water containing 10.0 wt. % sodium chloride

Compound	PSA of bulk drug [1]	further results
CC(=O)N1CCN(c2ccc(OCC3COC(Cn4ccnc4)(c4ccc(Cl)cc4Cl)O3)cc2)CC1 (stereo not shown) [Ketoconazole]	13.5 microns and 13.50 microns	Dissolution of bulk drug after 2 minutes ([2]; deionized water containing 0.5 wt. % SLS): 26.1 wt % and 26.10 wt %
NC(=O)N1c2ccccc2C=Cc2ccccc21 [Carbamazepine]	391.4 microns	Dissolution of bulk drug after 2 minutes ([2]; deionized water containing 5.0 wt. % sodium chloride): 4.83 wt %
CC(=O)OCC(=O)[C@@]1(O)CC[C@H]2[C@@H]3CCC4=CC(=O)CC[C@]4(C)[C@H]3[C@@H](O)C[C@@]21C [Hydrocortisone Acetate]	17.07 microns	Dissolution of bulk drug after 2 minutes ([2]; deionized water containing 0.3 wt. % SDS): 21.16 wt %
CC1(C)O[C@@H]2C[C@H]3[C@@H]4CCC5=CC(=O)C=C[C@]5(C)[C@@]4(F)[C@@H](O)C[C@]3(C)[C@]2(C(=O)CO)O1 [Triamcinalone Acetonide]	7.707 microns	Dissolution of bulk drug after 2 minutes [2, 3]: 5.38 wt %
CC(C(=O)O)c1cccc(C(=O)c2ccccc2)c1 (stereo not shown) [Ketoprofen]	42.73 microns	–
C#C[C@]1(O)CC[C@H]2[C@@H]3CCC4=Cc5oncc5C[C@]4(C)[C@H]3CC[C@@]21C [Danazol]	24.86 microns	Dissolution of bulk drug after 2 minutes ([2]; deionized water, 0.75 wt. % SLS, 1.21 wt. % Tris, pH 9): 56.42 wt %
C[C@]12C=CC(=O)C=C1CC[C@@H]1[C@@H]2C(=O)C[C@@]2(C)[C@H]1CC[C@]2(O)C(=O)CO [Prednisone]	3.263 microns	Dissolution of bulk drug after 2 minutes [2, 3]: 0.97 wt %
